{"source": "patent US20140322242A1", "about": "“MATERIALS AND METHODS FOR THE PREVENTION AND TREATMENT OF CANCER” (Icahn School of Medicine at Mount Sinai, priority 2010, published 2014)", "key": {"healthy prostate": {"tested_on": "healthy prostate", "assay": "Healthy (tumor-free) prostate: nerve density, epithelial cell proliferation, apoptosis, Chrm1 expression", "assay_type": "in vivo, mouse", "settings": "6OHDA; TUNEL", "procedure": "(§1) Upon sacrifice, mouse prostate tissues were immersed in OCT medium (Tissue Teck®). Five-micrometer frozen sections were stained with hematoxylin-eosin (H&E). For immunofluorescence, unstained prostate sections were fixed with acetone or methanol. For staining of nerves, fixed sections were incubated in H2O2 to quench endogenous peroxidase and non-specific binding was blocked with goat serum in bovine serum albumin (BSA) solution and the avidin/biotin blocking kit (Vector Laboratories, Burlingame, Calif.). Sections were incubated with a rabbit anti-TH antibody (Millipore, Billerica, Mass.), or anti-VAChT antibody (Phoenix Pharmaceuticals, Inc., Burlingame, Calif.), or anti-NF-L antibody (Millipore), or anti-NF-H antibody (Abcam, Cambridge, Mass.) and then with a secondary biotinylated goat anti-rabbit antibody (Vector Laboratories). Signal was amplified using the Vectastain Elite ABC Kit (Vector Laboratories) and visualized using the Tyramide Signal Amplification kit for TRITC (PerkinElmer, Boston, Mass.).\n(§2) For proliferative cell quantification, sections were incubated with a rabbit polyclonal anti-Ki67 (Abcam) and then Alexafluor 568-conjugated goat anti-rabbit antibody (Molecular Probes, Carlsbad, Calif.).\nFor apoptotic cell quantification, prostate sections were fixed with 4% paraformaldehyde (PFA) and stained with the Mebstain Apoptosis Kit according to manufacturer's recommendations (MBL International, Woburn, Mass.). Basement membranes were stained with a rat polyclonal anti-α2laminin antibody (Abcam) followed by Alexafluor647-conjugated goat anti-rat antibody (Molecular Probes).\nGene expression levels were analyzed from RNA extracted, using the TRIzol solution (Invitrogen, Carlsbad, Calif.), from PC-3, DU145, LNCaP cell lines or prostates from Balb/c nu/nu mice by quantitative real-time PCR, as described previously (Mendez-Ferrer, Nature, 452:442-447 (2008))."}, "[1]": {"tested_on": "prostate cancer in cMyc mice", "assay": "cMyc transgenic mouse model of prostate cancer (mPIN, invasive cancer zones)", "assay_type": "in vivo", "procedure": "To investigate further the activity of G-CSF on tumor development using a genetic mouse model, transgenic mice expressing human cMyc under the ARR2/probasin promoter expressed specifically in the prostate (hereafter cMyc mice) were evaluated. This transgenic model leads to the complete penetrance of mouse prostatic intraepithelial neoplasia (mPIN) from postnatal week 2, progressing to invasive adenocarcinomas between 3 to 6 months of age (FIG. 2m). […] The development of invasive cancer was associated with a broad infiltration of NF-L+ neo-fibers by comparison with control animals (FIG. 2o). Thus, the increased tumor/normal epithelial cell proliferation following G-CSF administration is associated with (i.e., is correlated to) the development of new nerve fibers in the primary tumor. Accordingly, a method of treating cancer in a subject such as a human patient or non-human animal (e.g., non-human mammal) comprises administering a prophylactically or therapeutically effective amount of an inhibitor of NF-L+ neo-fibers. In some embodiments, the method comprises administering a prophylactically or therapeutically effective amount of an inhibitor of G-CSF.\n(§3) Human tumors were induced by orthotopic surgical implantations of 1×10^5 PC-3luc cells into six- to eight-week-old Balb/c nu/nu mice. Ten days after cell injection (day 0), the animals were randomized into the different groups and received the appropriate drugs, as indicated. 6OHDA or vehicle was injected at day 0 (100 mg/kg) and day 2 (250 mg/kg), and human recombinant G-CSF treatment was begun on day 4 (Amgen, 250 μg/kg/day, every 12 hours, 8 divided doses, i.p., in 5% dextrose). A second cycle was administered eight weeks after graft and animals were sacrificed three weeks after the last injection of G-CSF (i.e., 11 weeks after graft). In other experiments, 2×10^5 PC-3luc cells were orthotopically injected into nu/nu Adrβ2^tm1Bkk/J+/+ Adrβ3^tm1Lowl/J+/+, nu/nu Adrβ2^tm1Bkk/J−/−, nu/nu Adrβ3^tm1Lowl/J−/− and nu/nu Adrβ2^tm1Bkk/J−/− Adrβ3^tm1Lowl/J−/−. In selected experiments, 2×10^6 LNCaP-luc cells were injected in nu/nu Adrβ2^tm1Bkk/J+/+ Adrβ3^tm1Lowl/J+/+ and nu/nu Adrβ2^tm1Bkk/J−/− Adrβ3^tm1Lowl/J−/− mice. For the transgenic model, one-, two- or five-month-old c-Myc mice were injected with 6OHDA or surgically sympathectomized according to protocols described above and sacrificed 30 days later.\nTo ascertain the role of sympathetic innervation in tumor initiation using a genetic model, the effect of chemical or surgical sympathectomy on prostate cancer in cMyc mice was evaluated. For this study, transgenic cMyc mice expressing human c-Myc under the ARR2/probasin promoter expressed specifically in the prostate (AAR2/Pbsn-MYC) were used. This transgenic model leads to the complete penetrance of mouse prostatic intraepithelial neoplasia (mPIN) from postnatal week 2, progressing to invasive adenocarcinomas between 3 to 6 months of age (FIG. 6e). To this end, mice were chemically sympathectomized one month prior to histological analyses.\nDisease progression was monitored by bioluminescence scanner. […] Mice were sacrificed at week 10."}, "PC-3luc cells [2]": {"tested_on": "PC-3luc cells", "assay": "PC-3luc cell proliferation / cytotoxicity in vitro (MTT)", "assay_type": "cell-based, human", "procedure": "A cell proliferation assay was performed on human PC-3 prostate tumor cells after 96 hours of treatment by G-CSF at three different concentrations by comparison with human leukemic cells (HL-60 and U937). Cell proliferation was quantified by a cell viability assay using MTT (3-[4,5-dimethylthiazole-2-yl]-2,5-diphenyltetrazolium bromide (Sigma). The percentage of viable cells was calculated by comparing the optical density (OD) of the treated samples with those incubated with vehicle. Methods were carried out as described by Magnon, et al., Cancer Res, 65, 4353-61 (2005); incorporated herein by reference in its entirety."}, "PC-3luc cells [3]": {"tested_on": "PC-3luc cells", "assay": "Xenogeneic orthotopic PC-3luc prostate tumor model in nude mice (bioluminescence, immunofluorescence)", "assay_type": "in vivo, Balb/c nu/nu mice", "settings": "for distant metastases / carbachol-induced lymph node invasion: antagonist in combination with carbachol", "procedure": "The microenvironment of a developing tumor is important in cancer development and metastasis. A xenogeneic orthotopic model of prostate cancer was established to provide a minimally disruptive microenvironment for this cancer in live mice.\nIn vivo and ex vivo bioluminescence imaging was performed and analyzed using an IVIS imaging system 200 series (Xenogen, Caliper Life Sciences, Hopkinton, Mass.). Bioluminescent signal was induced by i.p. injection of D-luciferin (150 mg/kg in PBS) 8 minutes prior to in vivo imaging. For ex vivo imaging, D-luciferin (300 mg/kg) was injected 7 minutes prior to necropsy. Organs of interest were immersed in a solution of D-luciferin at 150 mg/ml.\nas §1, §2, §3\nA second cycle was administered at week four and mice were sacrificed one week later (five weeks after graft). For cholinergic experiments using the nu/nu Chrm1^tm1Stl+/+ and nu/nu Chrm1^tm1Stl−/− animals, mice were sacrificed at week six post-graft. For the survival study, grafted mice were treated as described hereinabove from week 4, every two weeks for up to 25 weeks or until death. Disease progression was monitored by bioluminescence scanner. […] One week later, mice received a second round of treatment and were then sacrificed at month four."}, "[4]": {"assay": "Echocardiography cardiac function after carbachol", "assay_type": "in vivo", "settings": "carbachol four consecutive days; n = 4 mice", "procedure": "For imaging, animals were anesthetized with a mixture of O2/1.5% isoflurane and then positioned ventral side up on the platform of the imaging system. ECG signal and respiratory rate were captured through the electrode pads on the advanced physiological monitoring unit and transmitted to the Vevo system for monitoring. Cardiac examinations were performed in two dimensional images using the parasternal long axis (PLAX) view in B-Mode with a 1MS550D 40 MHz probe. Two cineloops (300 frames/cineloop) were recorded per animal and then analyzed on two diastoles and two systoles per animal. The endocardial stroke volume and endocardial diastolic volume were determined to calculate the ejection fraction."}, "[5]": {"assay": "Intravital microscopy hemodynamic measurements after carbachol", "assay_type": "in vivo, mice", "procedure": "Centerline red blood cell velocities were measured for 10 venules and 10 arterioles in two independent experiments. Wall shear rates (γ) were calculated based on Poiseuille's law for a Newtonian fluid, γ=2.12 (8Vmean)/Dv or Da, where Dv and Da are the venular or arterial diameters, the mean blood flow velocity (Vmean) was estimated as VRBC/1.6, and 2.12 is a median empirical mean, correction factor obtained from actual velocity profiles measured in microvessels in vivo. The blood flow rate was calculated from the formula: Vmean π D^2/4."}, "[6]": {"settings": "one hour after carbachol injection, n = 10 vessels"}}, "data": [{"smiles": "NCCc1cc(O)c(O)cc1O", "note": "[6OHDA, 6-hydroxydopamine]", "values": [{"measurement": "apoptosis of epithelial cells in the healthy prostate", "setting": "healthy prostate", "value": "triggered in vivo apoptosis"}, {"measurement": "percentage of mPIN", "setting": "[1]; denervation at 1 month of age", "value": "significantly reduced"}, {"measurement": "prevalence of mPIN and invasive cancer zones", "setting": "[1]; sympathectomy two months or more after birth", "value": "not significantly altered"}, {"measurement": "direct cytotoxicity on tumor cells in vitro", "setting": "PC-3luc cells [2]; 6OHDA, cultured PC-3luc cells", "value": "no direct cytotoxicity"}, {"measurement": "TH+ neural fibers expressing NF-L (basal neural layer underneath prostate epithelium)", "setting": "PC-3luc cells [3]; 6OHDA 100 and 250 mg/kg", "value": "specifically destroyed"}, {"measurement": "NF-L and NF-H positive fibers (parasympathetic) surrounding epithelial cells", "setting": "PC-3luc cells [3]; 6OHDA treatment", "value": "without affecting"}, {"measurement": "metastases", "setting": "PC-3luc cells [3]; 6OHDA-induced sympathectomy", "value": "did not yield any detectable metastases"}, {"measurement": "development of the primary tumors", "setting": "PC-3luc cells [3]; 6OHDA-induced sympathectomy, bioluminescence, TUNEL", "value": "dramatically prevented"}]}, {"smiles": "C[N+](C)(C)CCOC(N)=O.[Cl-]", "note": "[carbachol, carbamoylcholine chloride]", "values": [{"measurement": "incidence of mPIN", "setting": "[1]; carbachol into three-month-old mice", "value": "significantly increased"}, {"measurement": "transition of neoplastic lesions to invasive carcinoma", "setting": "[1]; carbachol, four months of age", "value": "accelerated"}, {"measurement": "proliferation of PC-3luc cells in vitro", "setting": "PC-3luc cells [2]; carbachol", "value": "did not induce any proliferation"}, {"measurement": "Ejection fraction", "setting": "[4]", "value": "65 ± 4", "unit": "%"}, {"measurement": "Endocardial volume, diastole", "setting": "[4]", "value": "34.4 ± 7.9", "unit": "µL"}, {"measurement": "Endocardial volume, systole", "setting": "[4]", "value": "11.7 ± 3.0", "unit": "µL"}, {"measurement": "invasion of inguinal lymph nodes", "setting": "PC-3luc cells [3]; carbachol alone, week 5", "value": "significantly enhanced"}, {"measurement": "proliferation of PC-3luc cells orthotopically implanted into the prostate (Ki67)", "setting": "PC-3luc cells [3]; carbachol injections", "value": "induced the proliferation"}, {"measurement": "tumor cell dissemination to distant organs compared to the control group", "setting": "PC-3luc cells [3]; carbachol, ex vivo bioluminescence", "value": "about 6 fold"}, {"measurement": "primary tumors (ex vivo bioluminescence)", "setting": "PC-3luc cells [3]; carbachol, five weeks post-grafting", "value": "depopulated"}, {"measurement": "vascular hemodynamics", "setting": "[5]; carbachol-treated mice", "value": "not altered"}, {"measurement": "Arterioles Blood Flow rate", "setting": "[5]; [6]", "value": "1737 ± 148", "unit": "nL/s"}, {"measurement": "Arterioles Diameter", "setting": "[5]; [6]", "value": "38.1 ±0.8", "unit": "μm"}, {"measurement": "Arterioles RBC velocity", "setting": "[5]; [6]", "value": "2.47 ± 0.22", "unit": "mm/sec"}, {"measurement": "Arterioles Wall shear rate (g)", "setting": "[5]; [6]", "value": "698 ± 69"}, {"measurement": "Venules Blood Flow rate", "setting": "[5]; [6]", "value": "863 ± 128", "unit": "nL/s"}, {"measurement": "Venules Diameter", "setting": "[5]; [6]", "value": "33.7 ± 1.3", "unit": "μm"}, {"measurement": "Venules RBC velocity", "setting": "[5]; [6]", "value": "1.48 ± 0.19", "unit": "mm/sec"}, {"measurement": "Venules Wall shear rate (g)", "setting": "[5]; [6]", "value": "469 ± 59"}]}, {"smiles": "CN1CCN(CC(=O)N2c3ccccc3C(=O)Nc3cccnc32)CC1", "note": "[pirenzepine]", "values": [{"measurement": "carbachol-induced malignancy progression", "setting": "[1]; pirenzepine with carbachol", "value": "completely inhibited"}, {"measurement": "distant metastases", "setting": "PC-3luc cells [3]", "value": "inhibited"}, {"measurement": "carbachol-induced lymph node invasion", "setting": "PC-3luc cells [3]; week 5", "value": "inhibited"}, {"measurement": "carbachol-induced tumor cell proliferation (Ki67)", "setting": "PC-3luc cells [3]; pirenzepine with carbachol", "value": "specifically blocked"}]}, {"smiles": "CN1[C@@H]2C[C@@H](OC(=O)[C@H](CO)c3ccccc3)C[C@H]1[C@@H]1O[C@@H]12", "note": "[scopolamine]", "values": [{"measurement": "distant metastases", "setting": "PC-3luc cells [3]", "value": "inhibited"}, {"measurement": "carbachol-induced lymph node invasion", "setting": "PC-3luc cells [3]; week 5", "value": "inhibited"}]}]}
